Experimental findings from patent publication US20230099344A1, “COMPOUNDS AND METHODS FOR THE TARGETED DEGRADATION OF IRAK-4” (Arvinas Operations, Inc., priority 2021, published 2023) are described below.

Holding throughout (type): cell-based
The target of one test is T1, IRAK-4 (Homo sapiens, UniProt Q9NWZ3).
T1 sequence (Q9NWZ3 1-460): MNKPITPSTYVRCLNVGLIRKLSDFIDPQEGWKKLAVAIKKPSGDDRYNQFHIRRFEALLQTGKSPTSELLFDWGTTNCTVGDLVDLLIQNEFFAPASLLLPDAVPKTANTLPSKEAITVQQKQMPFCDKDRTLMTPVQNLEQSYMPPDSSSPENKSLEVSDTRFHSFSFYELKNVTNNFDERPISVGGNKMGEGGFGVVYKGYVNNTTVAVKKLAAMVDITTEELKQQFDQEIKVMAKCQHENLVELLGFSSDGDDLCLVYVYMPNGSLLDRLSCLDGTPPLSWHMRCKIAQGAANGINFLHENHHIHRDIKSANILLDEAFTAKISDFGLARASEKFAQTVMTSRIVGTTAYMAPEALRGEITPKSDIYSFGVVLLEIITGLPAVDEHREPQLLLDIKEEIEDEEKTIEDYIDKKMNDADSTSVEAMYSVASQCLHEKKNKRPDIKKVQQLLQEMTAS
Description: IRAK-4 ELISA, PBMC degradation. Also on record: endogenous in cells; host or cells: PBMC. The following applies: treated overnight. Summed up:
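IRAK-4 levels measured by matched-antibody-pair ELISA on lysates after overnight compound exposure. Cells seeded same day: PBMC at 2×10^6/ml, OCI-Ly10 at 1×10^6/ml.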
Background: An ELISA detects its analyte on a solid surface through an enzyme-linked reagent.

In test [1] the test system is IL6. In words: LPS stimulated IL6 inhibition assay in PBMC. As to conditions: human PBMCs, LPS stimulation, compound overnight, IL6 by MSD after 24 hrs; for Dmax: read-out: LPS Stim IL6 inhibition Dmax; for IC50: read-out: LPS stim IL6 inhibition IC50. The protocol: (§1) IL-1β, LPS, or R848 Stimulated IL6 Inhibition and IL-1β Stimulated IL8 Inhibition Assay
(§2) Human PBMC cells were seeded at 2.0×10^6 cells/mL, treated with compound overnight, and dosed with the EC50 concentration of each stimulant (either IL-1B. LPS, or R848) was determined for each donor. After 24 hrs, media was collected and analyzed by MSD for IL6 and/or IL8 levels.

For test [2], the system named is IL6. Description: R848 stimulated IL6 inhibition assay in PBMC. As to conditions: human PBMCs, R848 stimulation, compound overnight, IL6 by MSD after 24 hrs; for Dmax: Homo sapiens, 24 h, read-out: R848 stim IL6 inhibition Dmax; for IC50: read-out: R848 stim IL6 inhibition IC50. The protocol:
as §1, §2

Each structure is given as a SMILES string.

The DC50 is the concentration giving 50% degradation. The low end stands for a more potent degrader, the high end for a less potent degrader. One may read the IC50 as the midpoint of a concentration-inhibition curve. For the compound `CC(C)Oc1cc2c(cc1NC(=O)c1cnn3cccnc13)CN(C1CCN(CC3(O)CCN(c4ccc5c(c4)C(=O)N(C4CCC(=O)NC4=O)C5=O)CC3)CC1)C2=O` (stereo not shown) [Example 109], on IRAK-4, the DC50 was less than 1 nM, the Dmax was not below 90% and the “PBMC DC90” value is on record as “A (A represents a DC90 value <10.0 nM)”. Besides, in the test on IL6 [1] (Homo sapiens, PBMC, 24 h), the Dmax fell in the range of 70 to 80% and the IC50 is 10 to 50 nM. In the test with IL6 [2] (PBMC), the Dmax was not below 90% and the IC50 fell in the range of 10 to 50 nM.

Regarding `C=C(CN1CCC(N2Cc3cc(NC(=O)c4cnn5cccnc45)c(OC(C)C)cc3C2=O)CC1)C1CCN(c2ccc3c(c2)C(=O)N(C2CCC(=O)NC2=O)C3=O)CC1` (stereo not shown) [Example 110], on IRAK-4, the DC50 was 1 to 5 nM; the Dmax is not below 90%; the “PBMC DC90” value was “B (B represents a DC90 value ≥10.0 nM and <25.0 nM)”. For the same compound, in the test with IL6 [1] (Homo sapiens, PBMC, 24 h), the Dmax was in the range of 80 to 90% and the IC50 lay in the range of 10 to 50 nM. Also, in the test with IL6 [2] (PBMC), the Dmax is not below 90% and the IC50 is 10 to 50 nM.

For the compound `CC(C)Oc1cc2c(cc1NC(=O)c1cnn3cccnc13)CN(C1CCN(C(C)(C)C3CCN(c4ccc5c(c4)CN(C4CCC(=O)NC4=O)C5=O)CC3)CC1)C2=O` (stereo not shown) [Example 111], at IRAK-4, the DC50 was less than 1 nM, the Dmax fell in the range of 80 to 90% and the “PBMC DC90” value is on record as “A (A represents a DC90 value <10.0 nM)”. In the test on IL6 [1] (Homo sapiens, PBMC, 24 h), the Dmax was not below 90% and the IC50 was 10 to 50 nM. In the test on IL6 [2] (PBMC), the Dmax was not below 90% and the IC50 lay in the range of 10 to 50 nM.

As for `O=C1CCC(N2C(=O)c3ccc(N4CC(F)(CN5CCC(N6Cc7cc(NC(=O)c8cnn9cccnc89)c(N8CCC(N9CCC9)CC8)cc7C6=O)CC5)C4)cc3C2=O)C(=O)N1` (stereo not shown) [Example 116], on IRAK-4, the DC50 lay in the range of 1 to 5 nM; the Dmax is not below 90%; the “PBMC DC90” value is “B (B represents a DC90 value ≥10.0 nM and <25.0 nM)”. Further, in the test with IL6 [1] (Homo sapiens, PBMC, 24 h), the Dmax was in the range of 80 to 90% and the IC50 is less than 10 nM. In the test with IL6 [2] (PBMC), the Dmax is not below 90% and the IC50 was less than 10 nM.

Take `O=C1CCC(N2Cc3cc(N4CC(F)(CN5CCC(N6Cc7cc(NC(=O)c8cnn9cccnc89)c(N8CCC(N9CCC9)CC8)cc7C6=O)CC5)C4)ccc3C2=O)C(=O)N1` (stereo not shown) [Example 117]: at IRAK-4, the half-maximal degradation concentration (DC50) lay in the range of 1 to 5 nM; the Dmax was not below 90%; the “PBMC DC90” value is “B (B represents a DC90 value ≥10.0 nM and <25.0 nM)”. Further, in the test with IL6 [1] (Homo sapiens, PBMC, 24 h), the Dmax is 70 to 80% and the IC50 was in the range of 10 to 50 nM. Besides, in the test on IL6 [2] (PBMC), the Dmax lay within 80 to 90% and the 50% inhibitory concentration (IC50) is 10 to 50 nM.

Turning to `O=C1CCC(N2Cc3cc(N4CCC(CN5CCC(n6cc7cc(NC(=O)c8cnn9cccnc89)c(OCC(F)F)cc7n6)CC5)CC4)ccc3C2=O)C(=O)N1` (stereo not shown) [Example 149], on IRAK-4, the DC50 was less than 1 nM, the Dmax was in the range of 80 to 90% and the “PBMC DC90” value was “A (A represents a DC90 value <10.0 nM)”. Besides, in the test with IL6 [1] (Homo sapiens, PBMC, 24 h), the Dmax was 70 to 80% and the IC50 fell in the range of 10 to 50 nM. Further, in the test with IL6 [2] (PBMC), the Dmax is not below 90% and the IC50 is less than 10 nM.

Consider `O=C1CCC(N2C(=O)c3ccc(N4CCC(CN5CCC(n6cc7cc(NC(=O)c8cnn9cccnc89)c(N8CCC(N9CCC9)CC8)cc7n6)CC5)CC4)cc3C2=O)C(=O)N1` (stereo not shown) [Example 150], for which, at IRAK-4, the DC50 lay within 1 to 5 nM; the Dmax was 80 to 90%; the “PBMC DC90” value is “C (C represents a DC90 value ≥25.0 nM and <50 nM)”. In the test with IL6 [1] (Homo sapiens, PBMC, 24 h), the Dmax is 80 to 90% and the IC50 was 50 to 100 nM. Further, in the test with IL6 [2] (PBMC), the Dmax was not below 90% and the IC50 was in the range of 10 to 50 nM.

For `O=C1CCC(N2Cc3c(ccc(N4CCC(CN5CCC(n6cc7cc(NC(=O)c8cnn9cccnc89)c(OCC8CC8)cc7n6)CC5)CC4)c3F)C2=O)C(=O)N1` (stereo not shown) [Example 153], on IRAK-4, the DC50 was less than 1 nM, the Dmax is 80 to 90% and the “PBMC DC90” value is on record as “A (A represents a DC90 value <10.0 nM)”. For the same compound, in the test on IL6 [1] (Homo sapiens, PBMC, 24 h), the Dmax is not below 90% and the IC50 was less than 10 nM. Also, in the test with IL6 [2] (PBMC), the Dmax lay in the range of 80 to 90% and the IC50 is less than 10 nM.

As for `O=C1CCC(N2Cc3c(ccc(N4CCC(CN5CCC(n6cc7cc(NC(=O)c8cnn9cccnc89)c(OCC(F)F)cc7n6)CC5)CC4)c3F)C2=O)C(=O)N1` (stereo not shown) [Example 154], on IRAK-4, the DC50 was less than 1 nM, the Dmax is 80 to 90% and the “PBMC DC90” value was “A (A represents a DC90 value <10.0 nM)”. In the test with IL6 [1] (Homo sapiens, PBMC, 24 h), the Dmax fell in the range of 80 to 90% and the IC50 is less than 10 nM. Also, in the test with IL6 [2] (PBMC), the Dmax was not below 90% and the IC50 was less than 10 nM.

In the case of `O=C1CCC(N2Cc3ccc(N4CCC(CN5CCC(n6cc7cc(NC(=O)c8cnn9cccnc89)c(OCC8CC8)cc7n6)CC5)CC4)cc3C2=O)C(=O)N1` (stereo not shown) [Example 155], at IRAK-4, the DC50 was less than 1 nM, the Dmax is not below 90% and the “PBMC DC90” value was “A (A represents a DC90 value <10.0 nM)”. Also, in the test with IL6 [1] (Homo sapiens, PBMC, 24 h), the Dmax was in the range of 80 to 90% and the IC50 is less than 10 nM. In addition, in the test with IL6 [2] (PBMC), the Dmax was not below 90% and the IC50 was less than 10 nM.

As for `O=C1CCC(N2Cc3cc(N4CCC(CN5CCC(n6cc7cc(NC(=O)c8cnn9cccnc89)c(OCC(F)F)cc7n6)CC5)CC4)ccc3C2=O)C(=O)N1` (stereo not shown) [Example 156], at IRAK-4, the DC50 is less than 1 nM, the “PBMC DC90” value is “A (A represents a DC90 value <10.0 nM)” and the “PBMC Dmax” value is “A (A represents a Dmax value ≥90)”. Further, in the test on IL6 [1], the “LPS Stim IL6 inhibition Dmax” value was “C (C represents a Ymax value ≥70 and <80)”; the IC50 was less than 10 nM. Further, in the test with IL6 [2], the “R848 stim IL6 inhibition Dmax” value is on record as “A (A represents a Ymax value ≥90)” and the IC50 is less than 10 nM.

As to `O=C1CCC(N2Cc3cc(N4CCC(CN5CCC(n6cc7cc(NC(=O)c8cnn9cccnc89)c(N8CCN(CC(F)F)CC8)cc7n6)CC5)CC4)ccc3C2=O)C(=O)N1` (stereo not shown) [Example 157], at IRAK-4, the DC50 was less than 1 nM, the Dmax was not below 90% and the “PBMC DC90” value is recorded as “A (A represents a DC90 value <10.0 nM)”. Further, in the test with IL6 [1] (Homo sapiens, PBMC, 24 h), the Dmax fell in the range of 70 to 80% and the IC50 was in the range of 10 to 50 nM. For the same compound, in the test with IL6 [2] (PBMC), the Dmax is not below 90% and the IC50 is 10 to 50 nM.

As to `O=C1CCC(N2Cc3c(ccc(N4CCC(CN5CCC(n6cc7cc(NC(=O)c8cnn9cccnc89)c(N8CCN(CC(F)F)CC8)cc7n6)CC5)CC4)c3F)C2=O)C(=O)N1` (stereo not shown) [Example 158], on IRAK-4, the DC50 is less than 1 nM, the Dmax is not below 90% and the “PBMC DC90” value is on record as “A (A represents a DC90 value <10.0 nM)”. In the test on IL6 [1] (Homo sapiens, PBMC, 24 h), the Dmax is 80 to 90% and the IC50 was less than 10 nM. In the test on IL6 [2] (PBMC), the Dmax is not below 90% and the IC50 is less than 10 nM.

Turning to `O=C1CCC(N2C(=O)c3ccc(N4CCC(CN5CCC(n6cc7cc(NC(=O)c8cnn9cccnc89)c(N8CCN(CC(F)F)CC8)cc7n6)CC5)CC4)cc3C2=O)C(=O)N1` (stereo not shown) [Example 159], on IRAK-4, the DC50 was 1 to 5 nM, the Dmax was not below 90% and the “PBMC DC90” value is given as “A (A represents a DC90 value <10.0 nM)”. Moreover, in the test with IL6 [1] (Homo sapiens, PBMC, 24 h), the Dmax lay within 70 to 80% and the concentration for half-maximal inhibition (IC50) lay within 10 to 50 nM. In the test on IL6 [2] (PBMC), the Dmax is not below 90% and the concentration for half-maximal inhibition (IC50) was in the range of 10 to 50 nM.

In the case of `O=C1CCC(N2C(=O)c3ccc(N4CC(F)(CN5CCC(n6cc7cc(NC(=O)c8cnn9cccnc89)c(N8CCOCC8)cc7n6)CC5)C4)cc3C2=O)C(=O)N1` (stereo not shown) [Example 218], on IRAK-4, the DC50 lay in the range of 5 to 10 nM, the Dmax was in the range of 80 to 90% and the “PBMC DC90” value was “D (D represents a DC90 value ≥50 nM)”. For the same compound, in the test on IL6 [1] (Homo sapiens, PBMC, 24 h), the Dmax fell in the range of 70 to 80% and the IC50 lay within 10 to 50 nM. In addition, in the test on IL6 [2] (PBMC), the Dmax is not below 90% and the IC50 was less than 10 nM.

As to `CC1(CN2CCC(n3cc4cc(NC(=O)c5cnn6cccnc56)c(OCC5CC5)cc4n3)CC2)CN(c2cc3c(cc2F)C(=O)N(C2CCC(=O)NC2=O)C3=O)C1` (stereo not shown) [Example 222], at IRAK-4, the DC50 is not below 10 nM, the Dmax was in the range of 70 to 80% and the “PBMC DC90” value is recorded as “D (D represents a DC90 value ≥50 nM)”. For the same compound, in the test with IL6 [1] (Homo sapiens, PBMC, 24 h), the Dmax fell in the range of 70 to 80% and the IC50 lay in the range of 50 to 100 nM. In the test with IL6 [2] (PBMC), the Dmax was not below 90% and the IC50 fell in the range of 50 to 100 nM.
